Results taken from ChEMBL document CHEMBL6096670, “Design, synthesis and biological evaluation of novel β-carbolines as antitumor agents via targeting autophagy in colorectal cancer” (Eur J Med Chem, 2025).
Active and inactive are the calls of the source. The calls are words filed in the database; no cut-off is given here.

Legend:
HCT-116 [1] = experiment: Effect on PARP expression level in p53 knockout human HCT-116 cells at 1 to 2 uM incubated for 24 hrs by Western blot analysis; assay type: functional, cell-based; settings: dose 1-2 µM
BGC-823 = experiment: Antiproliferative activity against human BGC-823 cells assessed as inhibition of cell growth incubated for 48 hrs by MTT assay; assay type: functional, cell-based; settings: BGC-823, 48 h
HCT-116 [2] = experiment: Antiproliferative activity against ATG5 knockout human HCT-116 cells assessed as inhibition of cell viability incubated for 24 hrs by CCK8 assay; assay type: functional, cell-based; settings: HCT-116, 24 h
HCT-116 [3] = experiment: Induction of apoptosis in human HCT-116 assessed as early apoptotic cells at 1 uM incubated for 24 hrs Annexin V FITC/PI double staining based flow cytometry (reference value: 1.07 %); assay type: functional
HCT-116 [4] = experiment: Induction of autophagy in human HCT-116 cells transfected with mRFP-GFP-LC3B assessed as autophagolysosome formation by measuring increase in mRFP to GFP fluorescence ratio at 0.5 to 2 uM incubated for 24 hrs by DAPI staining based fluorescence confocal microscopic analysis; assay type: functional, cell-based; settings: dose 0.5-2 µM
HCT-116 [5] = experiment: Induction of apoptosis in human HCT-116 cells assessed as effect on cleaved caspase-8 expression level at 0.5 to 2 uM incubated for 24 hrs by Western blot analysis; assay type: functional, cell-based; settings: dose 0.5-2 µM
HCT-116 [6] = experiment: Effect on C-PARP expression level in Bax knockout human HCT-116 cells at 1 to 2 uM incubated for 24 hrs by Western blot analysis; assay type: functional, cell-based; settings: dose 1-2 µM
HCT-116 [7] = experiment: Effect on caspase 3 expression level in p53 knockout human HCT-116 cells at 1 to 2 uM incubated for 24 hrs by Western blot analysis; assay type: functional, cell-based; settings: dose 1-2 µM
HCT-116 [8] = experiment: Induction of apoptosis in human HCT-116 assessed as late apoptotic cells at 1 uM incubated for 24 hrs Annexin V FITC/PI double staining based flow cytometry (reference value: 8.02 %); assay type: functional
HCT-116 [9] = experiment: Induction of autophagy in human HCT-116 cells transfected with mRFP-GFP-LC3B assessed as autophagolysosome formation by measuring decrease in GFP fluorescence at 0.5 to 2 uM incubated for 24 hrs by DAPI staining based fluorescence confocal microscopic analysis; assay type: functional, cell-based; settings: dose 0.5-2 µM
HCT-116 [10] = experiment: Induction of morphological changes in human HCT-116 cells assessed as decrease in adherence to culture dish at 0.5 to 2 uM by microscopic analysis; assay type: functional, cell-based; settings: dose 0.5-2 µM
HCT-116 [11] = experiment: Induction of apoptosis in human HCT-116 assessed as necrotic cells at 1 uM pretreated with Z-VAD-FMK for 30 mins followed by compound addition and measured after 24 hrs by Annexin V-FITC/PI double staining based flow cytometry (reference value: 0.84 %); assay type: functional
HCT-116 [12] = experiment: Inhibition of colony formation in ATG7 knockout human HCT-116 cells assessed as reduction in number of colonies at 1 to 4 uM measured after 24 hrs by crystal violet staining based analysis; assay type: functional, cell-based; settings: dose 1-4 µM
HCT-116 [13] = experiment: Induction of apoptosis in human HCT-116 assessed as late apoptotic cells at 2 uM pretreated with Z-VAD-FMK for 30 mins followed by compound addition and measured after 24 hrs by Annexin V-FITC/PI double staining based flow cytometry (reference value: 7.43%); assay type: functional
SK-OV-3 = experiment: Antiproliferative activity against human SK-OV-3 cells assessed as inhibition of cell growth incubated for 48 hrs by MTT assay; assay type: functional, cell-based; settings: SK-OV-3, 48 h
HCT-116 [14] = experiment: Induction of autophagy in human HCT-116 cells transfected with mRFP-GFP-LC3B assessed as appearance of RFP aggregate clusters in cytoplasm at 0.5 to 2 uM incubated for 24 hrs by DAPI staining based fluorescence confocal microscopic analysis; assay type: functional, cell-based; settings: dose 0.5-2 µM
HCT-116 [15] = experiment: Induction of autophagy in human HCT-116 cells transfected with tandem mRFP-GFP-LC3 plasmid assessed as increase in LC3-II accumulation incubated for 24 hrs by Western blot analysis; assay type: functional, cell-based; settings: dose 0.5-20 µM
[16] = Toxicity in female BALB/c mouse implanted with mouse CT26 cells assessed as change in kidney morphology at 1 to 2 mg/kg administrated once every 3 days for 18 days by H&E staining based analysis; assay type: organism-based; settings: in vivo, 432 h, dose 1-2 mg/kg, time 18 day
HT-29 = experiment: Antiproliferative activity against human HT-29 cells assessed as inhibition of cell growth incubated for 48 hrs by MTT assay; assay type: functional, cell-based; settings: HT-29, 48 h
HCT-116 [17] = experiment: Effect on cleaved caspase 3 expression level in p53 knockout human HCT-116 cells at 1 to 2 uM incubated for 24 hrs by Western blot analysis; assay type: functional, cell-based; settings: dose 1-2 µM
HCT-116 [18] = experiment: Induction of apoptosis in human HCT-116 assessed as necrotic cells at 1 uM incubated for 24 hrs Annexin V FITC/PI double staining based flow cytometry (reference value: 0.94 %); assay type: functional
HCT-116 [19] = experiment: Induction of autophagy in human HCT-116 cells transfected with tandem mRFP-GFP-LC3 plasmid assessed as increase in LC3-II accumulation by Western blot analysis; assay type: functional, cell-based; settings: time 3-48 hrs
HCT-116 [20] = experiment: Antiproliferative activity against p53 knockout human HCT-116 cells assessed as inhibition of cell viability incubated for 24 hrs by CCK8 assay; assay type: functional, cell-based; settings: HCT-116, 24 h
HCT-116 [21] = experiment: Induction of apoptosis in human HCT-116 cells assessed as effect on cleaved caspase 9 expression level at 0.5 to 2 uM incubated for 24 hrs by Western blot analysis; assay type: functional, cell-based; settings: dose 0.5-2 µM
HCT-116 [22] = experiment: Effect on apoptosis pathway related genes expression in human HCT-116 cells at 1 uM incubated for 24 hrs by GSVA enrichment analysis; assay type: functional, cell-based
HCT-116 [23] = experiment: Inhibition of cell migration in human HCT-116 cells at 1 to 2 uM incubated for 24 hrs by cell scratch assay; assay type: functional, cell-based; settings: dose 1-2 µM
HCT-116 [24] = experiment: Induction of autophagy in ATG7 knockout human HCT-116 cells assessed as increase in LC3-II expression at 1 to 2 uM incubated for 24 hrs by Western blot analysis; assay type: functional, cell-based; settings: dose 1-2 µM
HCT-116 [25] = experiment: Antiproliferative activity against human HCT-116 assessed as inhibition of cell viability incubated for 24 hrs by CCK8 method; assay type: functional, cell-based
CT26 [26] = experiment: Antitumor activity against mouse CT26 cells implanted in female BALB/c mouse assessed as reduction in Ki67 expression at 1 to 2 mg/kg administrated once every 3 days for 18 days by immunohistochemistry analysis; assay type: functional, organism-based; settings: dose 1-2 mg/kg, time 18.0 day
786-0 = experiment: Antiproliferative activity against human 786-0 cells assessed as inhibition of cell growth incubated for 48 hrs by MTT assay; assay type: functional, cell-based; settings: 786-0, 48 h
HCT-116 [27] = experiment: Induction of autophagy in human HCT-116 cells transfected with tandem mRFP-GFP-LC3 plasmid assessed as reduction in p62 expression by Western blot analysis; assay type: functional, cell-based; settings: time 3-48 hrs
CT26 [28] = experiment: Antitumor activity against mouse CT26 cells implanted in female BALB/c mouse assessed as reduction in tumor weight at 2 mg/kg administrated once every 3 days for 18 days relative to control; assay type: functional; set-up: scale not given: the % may be the effect or the level left; settings: time 18 day
HCT-116 [29] = experiment: Induction of apoptosis in human HCT-116 assessed as viable cells at 1 uM pretreated with Z-VAD-FMK for 30 mins followed by compound addition and measured after 24 hrs by Annexin V-FITC/PI double staining based flow cytometry (reference value: 90.8%); assay type: functional; settings: read-out: Activity
MCF7 = experiment: Antiproliferative activity against human MCF7 cells assessed as inhibition of cell growth incubated for 48 hrs by MTT assay; assay type: functional, cell-based; settings: MCF7, 48 h

Question: For `CCN(CC)CCCNCc1cc2c3ccccc3n(CCCc3ccccc3)c2c(CNCCCN(CC)CC)n1`, which Activity (HCT-116 [1]) is on record?
Answer: Its Activity is “inactive”.

Question: And the IC50 (BGC-823)?
Answer: The IC50 was 3.81 µM.

Question: And the IC50 (HCT-116 [2])?
Answer: The IC50 was 6.62 µM.

Question: And the Activity (HCT-116 [3])?
Answer: The Activity was 2.19%.

Question: And the Activity (HCT-116 [4])?
Answer: The Activity was “Active”.

Question: And the Activity (HCT-116 [5])?
Answer: The Activity was “inactive”.

Question: What about the Activity (HCT-116 [6]) of the same molecule?
Answer: The Activity was “inactive”.

Question: And the Activity (HCT-116 [7])?
Answer: Its Activity is “inactive”.

Question: What about the Activity (HCT-116 [8]) of the same molecule?
Answer: The Activity was 11.2%.

Question: What about the Activity (HCT-116 [9]) of the same molecule?
Answer: The Activity was “Active”.

Question: And the Activity (HCT-116 [10])?
Answer: Its Activity is “Active”.

Question: What about the Activity (HCT-116 [11]) of the same molecule?
Answer: The Activity was 2.2%.

Question: What about the inhibition (HCT-116 [12]) of the same molecule?
Answer: Its inhibition is “Active; Insignificant Decrease In Number Of Colonies Observed”.

Question: What about the Activity (HCT-116 [13]) of the same molecule?
Answer: Its Activity is 13.7%.

Question: And the IC50 (SK-OV-3)?
Answer: The IC50 was 4.26 µM.

Question: And the Activity (HCT-116 [14])?
Answer: The Activity was “Active”.

Question: And the Activity (HCT-116 [15])?
Answer: The Activity was “Dose-dependent-effect; Transformation Of Lc3-I To Lc3-Ii Observed”.

Question: And the Activity [16]?
Answer: The Activity was “Non-toxic”.

Question: And the IC50 (HT-29)?
Answer: The IC50 was 2.65 µM.

Question: And the Activity (HCT-116 [17])?
Answer: Its Activity is “inactive”.

Question: What about the Activity (HCT-116 [18]) of the same molecule?
Answer: Its Activity is 2.02%.

Question: And the Activity (HCT-116 [19])?
Answer: Its Activity is “Time-dependent-effect”.

Question: What about the IC50 (HCT-116 [20]) of the same molecule?
Answer: The IC50 was 2.45 µM.

Question: What about the Activity (HCT-116 [21]) of the same molecule?
Answer: The Activity was “inactive”.

Question: What about the Activity (HCT-116 [22]) of the same molecule?
Answer: The Activity was “inactive”.

Question: What about the inhibition (HCT-116 [23]) of the same molecule?
Answer: The inhibition was “Active”.

Question: And the Activity (HCT-116 [24])?
Answer: Its Activity is “inactive”.

Question: What about the Activity (HCT-116 [25]) of the same molecule?
Answer: Its Activity is “Dose-dependent-effect”.

Question: What about the IC50 (HCT-116 [25]; HCT-116, 24 h) of the same molecule?
Answer: Its IC50 is 2.75 µM.

Question: And the Activity (CT26 [26])?
Answer: Its Activity is “Active”.

Question: What about the IC50 (786-0) of the same molecule?
Answer: The IC50 was 3.86 µM.

Question: What about the Activity (HCT-116 [27]) of the same molecule?
Answer: The Activity was “Time-dependent-effect”.

Question: What about the Activity (CT26 [28]) of the same molecule?
Answer: Its Activity is 87.3%.

Question: And the viability at 1 µM (HCT-116 [29])?
Answer: The viability at 1 µM was 83.7%.

Question: What about the IC50 (MCF7) of the same molecule?
Answer: Its IC50 is 4.46 µM.
